Columns and labels:
[1] = 298.15 K; 101.33 kPa; Liquid
[2] = excess molar enthalpy (molar enthalpy of mixing); xn = mol fraction of the nth substance listed; details: 298.15 K, 101.33 kPa, Liquid, Flow calorimetry

CCCCO [butan-1-ol]
Details	mass density [kg/m3]
[1]	805.74

CCO [ethanol]
Details	mass density [kg/m3]
[1]	785.07

CCCCCC [hexane]
Details	mass density [kg/m3]
[1]	654.9

CCCCCC [hexane] + CCCCO
[2]
Details	excess molar enthalpy [kJ/mol]
x2 = 0.0199	0.221
x2 = 0.0399	0.287
x2 = 0.05	0.309
x2 = 0.06	0.328
x2 = 0.0799	0.364
x2 = 0.0999	0.395
x2 = 0.1499	0.459
x2 = 0.2	0.513
x2 = 0.25	0.542
x2 = 0.2999	0.557
x2 = 0.35	0.559
x2 = 0.4001	0.547
x2 = 0.4501	0.529
x2 = 0.5	0.501
x2 = 0.55	0.467
x2 = 0.6001	0.425
x2 = 0.6501	0.381
x2 = 0.7	0.33
x2 = 0.7501	0.278
x2 = 0.7999	0.224
x2 = 0.85	0.167
x2 = 0.8999	0.109
x2 = 0.95	0.0461

CCCCCC [hexane] + CCO
[2]
Details	excess molar enthalpy [kJ/mol]
x2 = 0.0544	0.28
x2 = 0.1056	0.415
x2 = 0.1538	0.48
x2 = 0.1994	0.527
x2 = 0.2426	0.55
x2 = 0.2835	0.569
x2 = 0.3592	0.58
x2 = 0.4277	0.568
x2 = 0.4596	0.561
x2 = 0.49	0.564
x2 = 0.5191	0.556
x2 = 0.5992	0.512
x2 = 0.6472	0.484
x2 = 0.7125	0.445
x2 = 0.8064	0.355
x2 = 0.8997	0.224
x2 = 0.9528	0.122

CCN(CC)CC [triethylamine]
Details	mass density [kg/m3]
[1]	722.56

CCN(CC)CC [triethylamine] + CCCCCC
[2]
Details	excess molar enthalpy [kJ/mol]
x1 = 0.025	0.0056
x1 = 0.05	0.0154
x1 = 0.075	0.0196
x1 = 0.1	0.0293
x1 = 0.15	0.0437
x1 = 0.2	0.0544
x1 = 0.25	0.0637
x1 = 0.3	0.0703
x1 = 0.35	0.0761
x1 = 0.4	0.0793
x1 = 0.45	0.0809
x1 = 0.5	0.0818
x1 = 0.6	0.0794
x1 = 0.65	0.0722
x1 = 0.7	0.0679
x1 = 0.75	0.0583
x1 = 0.8	0.0512
x1 = 0.85	0.0388
x1 = 0.9	0.0279
x1 = 0.95	0.0135

CCN(CC)CC [triethylamine] + CCCCO
[2]
Details	excess molar enthalpy [kJ/mol]
x2 = 0.0501	-0.0888
x2 = 0.1	-0.329
x2 = 0.1502	-0.543
x2 = 0.1999	-0.653
x2 = 0.2536	-0.819
x2 = 0.3001	-0.954
x2 = 0.3499	-1.11
x2 = 0.3999	-1.18
x2 = 0.4499	-1.27
x2 = 0.5	-1.35
x2 = 0.5499	-1.38
x2 = 0.5999	-1.4
x2 = 0.6499	-1.38
x2 = 0.7001	-1.32
x2 = 0.7501	-1.22
x2 = 0.7999	-1.08
x2 = 0.85	-0.916
x2 = 0.8999	-0.693
x2 = 0.9499	-0.368
x2 = 0.9792	-0.172

CCN(CC)CC [triethylamine] + CCO
[2]
Details	excess molar enthalpy [kJ/mol]
x2 = 0.1116	-0.374
x2 = 0.1621	-0.561
x2 = 0.2096	-0.684
x2 = 0.2542	-0.823
x2 = 0.2963	-0.94
x2 = 0.3361	-1.02
x2 = 0.4093	-1.19
x2 = 0.5056	-1.33
x2 = 0.5623	-1.38
x2 = 0.614	-1.38
x2 = 0.7047	-1.31
x2 = 0.7991	-1.1
x2 = 0.8477	-0.918
x2 = 0.8774	-0.784
x2 = 0.9052	-0.639
x2 = 0.9311	-0.484
x2 = 0.9555	-0.321
